Data taken from patent publication US5482975A, “Adenosine diphosphoribose polymerase binding nitroso aromatic compounds useful as retroviral inactivating agents, anti-retroviral agents and anti-tumor agents” (priority 1993, dated 1996).

Assays:
855-2 cells = assay: [3H] thymidine uptake / growth, 855-2 cells (FIG. 2A, E, F; FIG. 3); type: cell-based, human
Description: FIGS. 2A-2F are a composite of graphs displaying the inhibitory effects of the ADRPT ligands on (FIG. 2A) 855-2 cells (a cell line of human B-cell lineage acute lymphoblastic leukemia), (FIG. 2B) H9 cells (a cell line of human T-cell lineage acute lymphoblastic leukemia), FIG. (2C) HL-60 cells (a cell line of human acute nonlymphoblastic leukemia) and (FIG. 2D) K562 cells (a cell line of human chronic myelogenous leukemia). These cells were cultured while under the influence of the growth factors in 10% fetal bovine serum (FCS), whereas in (FIG. 2E) and (FIG. 2F) the 855-2 cells were cultured in the presence of autocrine growth factor activity (AGF) or low molecular weight-B-cell growth factor (BCGF, a T-cell derived lymphokine), respectively.
Experiments using HL-60 cells (FIG. 2C) provided similar conclusions.
855-2 cells that were grown in media with (1) 10% fetal bovine serum, (2) autocrine growth factor (AGF) and (3) low molecular weight-BCGF (a T cell derived lymphokine) were exposed to increasing concentrations of the ADRPT ligands.

L1210 murine leukemia = L1210 murine leukemia in vivo; design: species or system BDF mice; details: 2 mg/kg i.p. twice a day, 6 consecutive days
HIV-1 = assay: inhibition of HIV infection, virus titer in stimulated human lymphoblasts; type: cell-based; details: 10 μM; 30 min exposure, day 10; virus alone 5.25
Description: VIII. Anti-HIV action of NOBP, NOBA and NOQ on stimulated human lymphoblasts.
Exposure to the two drugs was only for 30 minutes at the commencement of viral infection, and drugs were never re-added. The results given in Table III provide the ID50 of HIV titer 10 days after infection of cell cultures with HIV.

HIV-1 (LAV strain) = assay: HIV-1 inactivation assay in PBL cultures (FIG. 13A, B); type: cell-based; details: NOBA versus NOBP
Description: The assay was performed as described in FIG. 13A except that the 30 min. preincubation of virus with NOBA was carried out at 0>, 22° or 37° C.
An HIV-1 stock having an infectivity titer of 100,000 TCID50 was incubated for 30 min. at 22° C. with either of the drugs. Control HIV samples, containing no drugs, were incubated in the same manner. […] At the end of this incubation cultures were assayed for productive infection by an immunoassay for HIV-1 antigens and by reverse transcriptase as described in McDougal, et al., J. Immunol Methods 76:171-183 (1985). Virus titers were expressed as percentile values (percent infected cultures) compared to the controls, containing HIV dilutions which were not preincubated with the C-nitroso drugs. In a separate series of experiments, HIV-1 dilutions and C-nitroso drugs (see upper abscissa) were not preincubated but were added simultaneously to lymphocytes in exactly the same concentrations as described previously (i.e., following preincubation) and viral growth monitored 9 days later. […] Chem. Soc. 111:395-396 (1989), South, et al., Biochem Pharm. 40:123-129 (1990), Summers, et al., Biochemistry 29:329-340 (1990), the inhibition of HIV-1 propagation was profound when C-nitroso drugs were preincubated with HIV-1, whereas only negligible effect on HIV-1 growth occurred when both drugs and virus were added simultaneously. […]

[1] = test system: normal rhesus bone marrow stem cells; assay: CFU stem cell toxicity assay (FIG. 5A); details: 10 μM
Human Neutrophils = assay: superoxide generation by human neutrophils; details: 10 μM

Question: What does the source list for `NC(=O)c1cccc(N=O)c1` [NOBA, 3-nitrosobenzamide]?
Answer: growth arrest in increasing FCS (855-2 cells; 10 μM, increasing FCS concentrations): Growth arrest occurs irrespective of the concentration of FCS; inhibitory effects with different growth factors (855-2 cells; 10% fetal bovine serum, AGF or BCGF): potent inhibitory effects; in vivo chemotherapeutic response (L1210 murine leukemia): highly significant in vivo chemotherapeutic response; toxic effects in mice (L1210 murine leukemia): no toxic effects; Virus Titer (log ID50) (HIV-1): 1.05 log ID50; relative depression of HIV-1 propagation (HIV-1 (LAV strain)): greater depression of HIV-1 propagation; CFU stem cell toxicity [1]: non-toxic; reduction in superoxide generation (Human Neutrophils): Only minor reductions; Generation of Superoxide by Human Neutrophils (Human Neutrophils; mean + S.D., n = 11, PMN + PMA): 44.4 ± 10.0 nmol 02^- /hr/10^5 cells
